Experimental data: the supplement of paper PMC10307832

Experiments:
Test in all cases: relative viability (nuclei count vs DMSO), 5 days (fraction); higher = more cells survive
NCI-H1651 = system: NCI-H1651
Outline: (§1)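 One day after seeding in 1536-well plates, lung cancer cell lines were dosed by pin tool. Dosing was either single-drug or a fixed anchor-drug dose plus five library-drug doses (not always all listed) in √10 steps. After 5 days, nuclei were stained in one fix-and-stain step and counted on 4× images, and relative viability is the nuclei count of treated wells over that of vehicle wells, given as the median of duplicate plates.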

NCI-H1623 = system: NCI-H1623
Outline: as §1

SK-MES-1 = system: SK-MES-1
Outline: as §1

A549 = system: A549
Outline: as §1

SW 1573 = system: SW 1573
Outline: as §1

ChaGo-K-1 = system: ChaGo-K-1
Outline: as §1

COR-L23 = system: COR-L23
Outline: as §1

NCI-H1437 = system: NCI-H1437
Outline: as §1

ABC-1 = system: ABC-1
Outline: as §1

Work on `COc1cc2nccc(Oc3ccc(NC(=O)Nc4cc(C)on4)c(Cl)c3)c2cc1OC` [Tivozanib] + N=C(N)NC(=N)NCCc1ccccc1 [Phenformin] (partner 250 µM) yielded a relative viability (NCI-H1651; first compound 0.005 µM) of 0.297, a relative viability (NCI-H1651; first compound 0.01581 µM) of 0.425 and a relative viability (NCI-H1651; first compound 0.05 µM) of 0.314. For the same compound, the relative viability (NCI-H1651; first compound 0.1581 µM) was 0.36, the relative viability (NCI-H1651; first compound 0.5 µM) was 0.315 and the relative viability (NCI-H1623; first compound 0.005 µM) was 0.582. It also gave a relative viability (NCI-H1623; first compound 0.01581 µM) of 0.622, a relative viability (NCI-H1623; first compound 0.05 µM) of 0.588 and a relative viability (NCI-H1623; first compound 0.5 µM) of 0.607. The relative viability (SK-MES-1; first compound 0.005 µM) was 0.622, the relative viability (SK-MES-1; first compound 0.01581 µM) was 0.676 and the relative viability (SK-MES-1; first compound 0.05 µM) was 0.71. It also gave a relative viability (SK-MES-1; first compound 0.1581 µM) of 0.688, a relative viability (SK-MES-1; first compound 0.5 µM) of 0.602 and a relative viability (A549; first compound 0.005 µM) of 0.171. It also gave a relative viability (A549; first compound 0.01581 µM) of 0.163, a relative viability (A549; first compound 0.05 µM) of 0.19 and a relative viability (A549; first compound 0.1581 µM) of 0.124. It also gave a relative viability (A549; first compound 0.5 µM) of 0.209, a relative viability (SW 1573; first compound 0.005 µM) of 0.361 and a relative viability (SW 1573; first compound 0.01581 µM) of 0.362. For the same compound, the relative viability (SW 1573; first compound 0.05 µM) was 0.369, the relative viability (SW 1573; first compound 0.1581 µM) was 0.306 and the relative viability (SW 1573; first compound 0.5 µM) was 0.386. For the same compound, the relative viability (ChaGo-K-1; first compound 0.005 µM) was 0.474, the relative viability (ChaGo-K-1; first compound 0.01581 µM) was 0.488 and the relative viability (ChaGo-K-1; first compound 0.05 µM) was 0.492. It also gave a relative viability (ChaGo-K-1; first compound 0.1581 µM) of 0.507, a relative viability (ChaGo-K-1; first compound 0.5 µM) of 0.433 and a relative viability (COR-L23; first compound 0.005 µM) of 0.427. The relative viability (COR-L23; first compound 0.01581 µM) was 0.433, the relative viability (COR-L23; first compound 0.05 µM) was 0.446 and the relative viability (COR-L23; first compound 0.1581 µM) was 0.43. The relative viability (COR-L23; first compound 0.5 µM) was 0.409, the relative viability (NCI-H1437; first compound 0.005 µM) was 0.296 and the relative viability (NCI-H1437; first compound 0.01581 µM) was 0.289. For the same compound, the relative viability (NCI-H1437; first compound 0.05 µM) was 0.316, the relative viability (NCI-H1437; first compound 0.1581 µM) was 0.339 and the relative viability (NCI-H1437; first compound 0.5 µM) was 0.317. The relative viability (ABC-1; first compound 0.005 µM) was 0.236, the relative viability (ABC-1; first compound 0.01581 µM) was 0.246 and the relative viability (ABC-1; first compound 0.05 µM) was 0.268. For the same compound, the relative viability (ABC-1; first compound 0.1581 µM) was 0.201 and the relative viability (ABC-1; first compound 0.5 µM) was 0.24.
With `CC(=O)O[C@@]12CO[C@@H]1C[C@H](O)[C@@]1(C)C(=O)[C@H](O)C3=C(C)[C@@H](OC(=O)[C@H](O)[C@@H](NC(=O)OC(C)(C)C)c4ccccc4)C[C@@](O)([C@@H](OC(=O)c4ccccc4)[C@H]21)C3(C)C` [Docetaxel] + N=C(N)NC(=N)NCCc1ccccc1 [Phenformin] (partner 250 µM) the relative viability (NCI-H1651; first compound 0.0002 µM) was 0.266, the relative viability (NCI-H1651; first compound 0.000632 µM) was 0.342 and the relative viability (NCI-H1651; first compound 0.002 µM) was 0.194. For the same compound, the relative viability (NCI-H1651; first compound 0.006325 µM) was 0.087, the relative viability (NCI-H1651; first compound 0.02 µM) was 0.0897 and the relative viability (NCI-H1623; first compound 0.0002 µM) was 0.54. The relative viability (NCI-H1623; first compound 0.000632 µM) was 0.568, the relative viability (NCI-H1623; first compound 0.002 µM) was 0.494 and the relative viability (NCI-H1623; first compound 0.006325 µM) was 0.313. It also gave a relative viability (NCI-H1623; first compound 0.02 µM) of 0.239, a relative viability (SK-MES-1; first compound 0.0002 µM) of 0.664 and a relative viability (SK-MES-1; first compound 0.000632 µM) of 0.667. It also gave a relative viability (SK-MES-1; first compound 0.002 µM) of 0.364, a relative viability (SK-MES-1; first compound 0.006325 µM) of 0.273 and a relative viability (SK-MES-1; first compound 0.02 µM) of 0.179. It also gave a relative viability (A549; first compound 0.0002 µM) of 0.203, a relative viability (A549; first compound 0.000632 µM) of 0.0682 and a relative viability (A549; first compound 0.002 µM) of 0.0555. It also gave a relative viability (A549; first compound 0.006325 µM) of 0.0466, a relative viability (A549; first compound 0.02 µM) of 0.0476 and a relative viability (SW 1573; first compound 0.0002 µM) of 0.311. It also gave a relative viability (SW 1573; first compound 0.000632 µM) of 0.344, a relative viability (SW 1573; first compound 0.002 µM) of 0.159 and a relative viability (SW 1573; first compound 0.02 µM) of 0.119. For the same compound, the relative viability (ChaGo-K-1; first compound 0.0002 µM) was 0.431, the relative viability (ChaGo-K-1; first compound 0.000632 µM) was 0.408 and the relative viability (ChaGo-K-1; first compound 0.002 µM) was 0.283. For the same compound, the relative viability (ChaGo-K-1; first compound 0.006325 µM) was 0.192, the relative viability (ChaGo-K-1; first compound 0.02 µM) was 0.149 and the relative viability (COR-L23; first compound 0.0002 µM) was 0.399. For the same compound, the relative viability (COR-L23; first compound 0.000632 µM) was 0.32, the relative viability (COR-L23; first compound 0.002 µM) was 0.167 and the relative viability (COR-L23; first compound 0.006325 µM) was 0.106. The relative viability (COR-L23; first compound 0.02 µM) was 0.098, the relative viability (NCI-H1437; first compound 0.0002 µM) was 0.3 and the relative viability (NCI-H1437; first compound 0.000632 µM) was 0.294. It also gave a relative viability (NCI-H1437; first compound 0.002 µM) of 0.23, a relative viability (NCI-H1437; first compound 0.006325 µM) of 0.154 and a relative viability (NCI-H1437; first compound 0.02 µM) of 0.123. For the same compound, the relative viability (ABC-1; first compound 0.0002 µM) was 0.27, the relative viability (ABC-1; first compound 0.000632 µM) was 0.226 and the relative viability (ABC-1; first compound 0.002 µM) was 0.232. For the same compound, the relative viability (ABC-1; first compound 0.006325 µM) was 0.223 and the relative viability (ABC-1; first compound 0.02 µM) was 0.212.
